The OligoGym collection
Values joined by “and” are separate entries in the source; they are usually repeats but may differ in a detail not shown here. Equal entries are not always repeated. HELM strings list units from the 5' end as sugar, base in round brackets, then linkage (d deoxyribose, r ribose, m 2'-O-methyl, p phosphodiester). Methylation of C is not given here. [moe] = 2'-O-(2-methoxyethyl) (MOE); [cEt] = constrained ethyl (cEt); [sp] = phosphorothioate linkage

Molecular target: HBV
Settings: ASO

Q: Which target mRNA inhibition (HepG2, 0.07 µM) does the source give for “RNA1{[moe](C)[sp].[moe](A)[sp].[moe](A)[sp].d(T)[sp].d(T)[sp].d(T)[sp].d(A)[sp].d(T)[sp].d(G)[sp].d(C)[sp].d(C)[sp].d(T)[sp].d(A)[sp].[cEt](C)[sp].[cEt](A)[sp].[cEt](G)}$$$$V2.0” here?
A: 30% and 20%

Q: Which target mRNA inhibition (HepG2, 0.07 µM) does the source give for “RNA1{[moe](A)[sp].[moe](A)[sp].[moe](G)[sp].d(C)[sp].d(G)[sp].d(A)[sp].d(A)[sp].d(G)[sp].d(T)[sp].d(G)[sp].d(C)[sp].d(A)[sp].[moe](C)[sp].[moe](A)[sp].[moe](C)[sp].[moe](G)[sp].[moe](G)}$$$$V2.0” here?
A: 81% and 73%

Q: With “RNA1{[moe](A)[sp].[moe](C)[sp].[moe](T)[sp].[moe](G)[sp].d(G)[sp].d(A)[sp].d(G)[sp].d(C)[sp].d(C)[sp].d(A)[sp].d(C)[sp].d(C)[sp].d(A)[sp].[moe](G)[sp].[moe](C)[sp].[moe](A)[sp].[moe](G)}$$$$V2.0” as the substance, how does the target mRNA inhibition (HepG2, 0.07 µM) read?
A: 40% and 41%

Q: Which target mRNA inhibition (HepG2, 0.0092593 µM) does the source give for “RNA1{[moe](T)[sp].[cEt](C)[sp].d(C)[sp].d(G)[sp].d(C)[sp].d(A)[sp].d(G)[sp].d(T)[sp].d(A)[sp].d(T)[sp].d(G)[sp].d(G)[sp].[cEt](A)[sp].[moe](T)[sp].[cEt](C)[sp].[moe](G)}$$$$V2.0” here?
A: 33%

Q: And the target mRNA inhibition (HepG2, 0.0277778 µM)?
A: 56%

Q: What about the target mRNA inhibition (HepG2, 0.07 µM) of the same substance?
A: 85% and 81%

Q: What about the target mRNA inhibition (HepG2, 0.0833333 µM) of the same substance?
A: 80%

Q: What about the target mRNA inhibition (HepG2, 0.25 µM) of the same substance?
A: 92%

Q: For “RNA1{[moe](C)[sp].[moe](T)[sp].[moe](G)[sp].[moe](G)[sp].d(A)[sp].d(G)[sp].d(C)[sp].d(C)[sp].d(A)[sp].d(C)[sp].d(C)[sp].d(A)[sp].d(G)[sp].[moe](C)[sp].[moe](A)[sp].[moe](G)[sp].[moe](G)}$$$$V2.0”, which target mRNA inhibition (HepG2, 0.0092593 µM) is on record?
A: 0%

Q: What about the target mRNA inhibition (HepG2, 0.0277778 µM) of the same substance?
A: 24%

Q: What about the target mRNA inhibition (HepG2, 0.07 µM) of the same substance?
A: 79% and 76%

Q: What about the target mRNA inhibition (HepG2, 0.0833333 µM) of the same substance?
A: 65%

Q: And the target mRNA inhibition (HepG2, 0.25 µM)?
A: 79%

Q: Which target mRNA inhibition (HepG2, 0.07 µM) does the source give for “RNA1{[moe](T)[sp].[moe](C)[sp].[moe](C)[sp].d(A)[sp].d(C)[sp].d(C)[sp].d(A)[sp].d(C)[sp].d(G)[sp].d(A)[sp].d(G)[sp].d(T)[sp].d(C)[sp].[cEt](T)[sp].[cEt](A)[sp].[cEt](G)}$$$$V2.0” here?
A: 42% and 67%

Q: “RNA1{[moe](A)[sp].[cEt](A)[sp].[cEt](C)[sp].d(T)[sp].d(G)[sp].d(G)[sp].d(A)[sp].d(G)[sp].d(C)[sp].d(C)[sp].d(A)[sp].d(C)[sp].d(C)[sp].[cEt](A)[sp].[cEt](G)[sp].[moe](C)}$$$$V2.0” was tested. Which target mRNA inhibition (HepG2, 0.07 µM) did it give?
A: 67% and 68%

Q: Which target mRNA inhibition (HepG2, 0.07 µM) does the source give for “RNA1{[moe](A)[sp].[moe](A)[sp].d(C)[sp].d(C)[sp].d(A)[sp].d(C)[sp].d(T)[sp].d(G)[sp].d(A)[sp].d(A)[sp].d(C)[sp].[moe](A)[sp].[moe](A)[sp].[moe](A)[sp].[moe](T)[sp].[moe](G)[sp].[moe](G)}$$$$V2.0” here?
A: 67% and 59%

Q: How did the target mRNA inhibition (HepG2, 0.07 µM) turn out when “RNA1{[moe](G)[sp].[moe](G)[sp].[moe](T)[sp].d(G)[sp].d(A)[sp].d(A)[sp].d(G)[sp].d(C)[sp].d(G)[sp].d(A)[sp].d(A)[sp].d(G)[sp].[moe](T)[sp].[moe](G)[sp].[moe](C)[sp].[moe](A)}$$$$V2.0” was run?
A: 67% and 60%

Q: “RNA1{[moe](A)[sp].[moe](A)[sp].[moe](C)[sp].d(C)[sp].d(A)[sp].d(C)[sp].d(T)[sp].d(G)[sp].d(A)[sp].d(A)[sp].d(C)[sp].d(A)[sp].d(A)[sp].[cEt](A)[sp].[cEt](T)[sp].[cEt](G)}$$$$V2.0” was tested. Which target mRNA inhibition (HepG2, 0.07 µM) did it give?
A: 41% and 38%

Q: How did the target mRNA inhibition (HepG2, 0.07 µM) turn out when “RNA1{[moe](T)[sp].[moe](C)[sp].[moe](C)[sp].d(G)[sp].d(C)[sp].d(A)[sp].d(G)[sp].d(T)[sp].d(A)[sp].d(T)[sp].d(G)[sp].d(G)[sp].d(A)[sp].[cEt](T)[sp].[cEt](C)[sp].[cEt](G)}$$$$V2.0” was run?
A: 73% and 53%

Q: For “RNA1{[moe](C)[sp].[moe](C)[sp].d(G)[sp].d(C)[sp].d(A)[sp].d(G)[sp].d(T)[sp].d(A)[sp].d(T)[sp].d(G)[sp].d(G)[sp].[moe](A)[sp].[moe](T)[sp].[moe](C)[sp].[moe](G)[sp].[moe](G)}$$$$V2.0”, which target mRNA inhibition (HepG2, 0.07 µM) is on record?
A: 63% and 52%

Q: Which target mRNA inhibition (HepG2, 0.07 µM) does the source give for “RNA1{[moe](C)[sp].[moe](G)[sp].[moe](A)[sp].[moe](A)[sp].d(C)[sp].d(C)[sp].d(A)[sp].d(C)[sp].d(T)[sp].d(G)[sp].d(A)[sp].d(A)[sp].d(C)[sp].[moe](A)[sp].[moe](A)[sp].[moe](A)}$$$$V2.0” here?
A: 44% and 32%

Q: Which target mRNA inhibition (HepG2, 0.07 µM) does the source give for “RNA1{[moe](A)[sp].[cEt](A)[sp].[cEt](C)[sp].d(C)[sp].d(A)[sp].d(C)[sp].d(T)[sp].d(G)[sp].d(A)[sp].d(A)[sp].d(C)[sp].d(A)[sp].d(A)[sp].[cEt](A)[sp].[cEt](T)[sp].[moe](G)}$$$$V2.0” here?
A: 64% and 51%

Q: What does the source list for “RNA1{[moe](G)[sp].[moe](T)[sp].[moe](G)[sp].d(A)[sp].d(A)[sp].d(G)[sp].d(C)[sp].d(G)[sp].d(A)[sp].d(A)[sp].d(G)[sp].d(T)[sp].d(G)[sp].[cEt](C)[sp].[cEt](A)[sp].[cEt](C)}$$$$V2.0”?
A: target mRNA inhibition (HepG2, 0.0092593 µM): 0%; target mRNA inhibition (HepG2, 0.0277778 µM): 32%; target mRNA inhibition (HepG2, 0.07 µM): 74% and 84%; target mRNA inhibition (HepG2, 0.0833333 µM): 68%; target mRNA inhibition (HepG2, 0.25 µM): 86%

Q: How did the target mRNA inhibition (HepG2, 0.07 µM) turn out when “RNA1{[moe](G)[sp].[cEt](G)[sp].[cEt](C)[sp].d(A)[sp].d(G)[sp].d(A)[sp].d(G)[sp].d(G)[sp].d(T)[sp].d(G)[sp].d(A)[sp].d(A)[sp].d(A)[sp].[cEt](A)[sp].[cEt](A)[sp].[moe](G)}$$$$V2.0” was run?
A: 50% and 49%

Q: For “RNA1{[moe](A)[sp].[cEt](A)[sp].[cEt](C)[sp].d(A)[sp].d(A)[sp].d(A)[sp].d(T)[sp].d(G)[sp].d(G)[sp].d(C)[sp].d(A)[sp].d(C)[sp].d(T)[sp].[cEt](A)[sp].[cEt](G)[sp].[moe](T)}$$$$V2.0”, which target mRNA inhibition (HepG2, 0.07 µM) is on record?
A: 78% and 76%

Q: Which target mRNA inhibition (HepG2, 0.07 µM) does the source give for “RNA1{[moe](G)[sp].[moe](A)[sp].[moe](G)[sp].[moe](G)[sp].d(C)[sp].d(A)[sp].d(T)[sp].d(A)[sp].d(G)[sp].d(C)[sp].d(A)[sp].d(G)[sp].d(C)[sp].[moe](A)[sp].[moe](G)[sp].[moe](G)[sp].[moe](A)}$$$$V2.0” here?
A: 35%

Q: For “RNA1{[moe](C)[sp].[moe](A)[sp].[moe](C)[sp].d(T)[sp].d(A)[sp].d(G)[sp].d(T)[sp].d(A)[sp].d(A)[sp].d(A)[sp].d(C)[sp].d(T)[sp].[moe](G)[sp].[moe](A)[sp].[moe](G)[sp].[moe](C)}$$$$V2.0”, which target mRNA inhibition (HepG2, 0.07 µM) is on record?
A: 14% and 4%

Q: With “RNA1{[moe](A)[sp].[cEt](T)[sp].d(T)[sp].d(T)[sp].d(A)[sp].d(T)[sp].d(G)[sp].d(C)[sp].d(C)[sp].d(T)[sp].d(A)[sp].d(C)[sp].[cEt](A)[sp].[moe](G)[sp].[cEt](C)[sp].[moe](C)}$$$$V2.0” as the substance, how does the target mRNA inhibition (HepG2, 0.07 µM) read?
A: 44% and 52%

Q: “RNA1{[moe](G)[sp].[cEt](A)[sp].[cEt](T)[sp].d(G)[sp].d(A)[sp].d(G)[sp].d(G)[sp].d(C)[sp].d(A)[sp].d(T)[sp].d(A)[sp].d(G)[sp].d(C)[sp].[cEt](A)[sp].[cEt](G)[sp].[moe](C)}$$$$V2.0” was tested. Which target mRNA inhibition (HepG2, 0.07 µM) did it give?
A: 60% and 59%

Q: “RNA1{[moe](A)[sp].[cEt](A)[sp].d(G)[sp].d(T)[sp].d(C)[sp].d(C)[sp].d(A)[sp].d(C)[sp].d(C)[sp].d(A)[sp].d(C)[sp].d(G)[sp].[cEt](A)[sp].[moe](G)[sp].[cEt](T)[sp].[moe](C)}$$$$V2.0” was tested. Which target mRNA inhibition (HepG2, 0.07 µM) did it give?
A: 43% and 40%

Q: With “RNA1{[moe](A)[sp].[cEt](G)[sp].d(T)[sp].d(C)[sp].d(C)[sp].d(A)[sp].d(C)[sp].d(C)[sp].d(A)[sp].d(C)[sp].d(G)[sp].d(A)[sp].[cEt](G)[sp].[moe](T)[sp].[cEt](C)[sp].[moe](T)}$$$$V2.0” as the substance, how does the target mRNA inhibition (HepG2, 0.07 µM) read?
A: 51% and 43%
